Patent US9187411B2, “Leukotriene B4 antagonist compound” (Eli Lilly and Company, priority 2012, dated 2015)
pKi: −log10 of the molar value.

Molecular target: T1, PPARα (Homo sapiens, UniProt Q07869)
T1 construct: made in house; host or cells: Sf9 insect cells (baculovirus), crude cell lysate
T1 sequence (Q07869 1-468): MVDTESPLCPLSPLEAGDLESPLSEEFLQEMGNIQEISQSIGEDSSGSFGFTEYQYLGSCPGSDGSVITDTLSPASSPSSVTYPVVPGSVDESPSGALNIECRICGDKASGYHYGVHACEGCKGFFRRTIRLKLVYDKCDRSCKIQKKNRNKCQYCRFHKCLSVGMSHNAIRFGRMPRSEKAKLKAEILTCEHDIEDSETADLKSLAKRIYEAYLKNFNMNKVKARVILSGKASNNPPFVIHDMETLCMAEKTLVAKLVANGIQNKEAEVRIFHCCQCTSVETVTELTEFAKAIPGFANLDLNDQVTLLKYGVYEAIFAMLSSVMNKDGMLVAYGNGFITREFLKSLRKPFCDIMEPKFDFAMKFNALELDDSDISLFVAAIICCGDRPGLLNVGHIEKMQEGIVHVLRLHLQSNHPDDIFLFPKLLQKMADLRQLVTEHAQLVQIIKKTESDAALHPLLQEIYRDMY
T1 sequence (P19793 1-462 partner): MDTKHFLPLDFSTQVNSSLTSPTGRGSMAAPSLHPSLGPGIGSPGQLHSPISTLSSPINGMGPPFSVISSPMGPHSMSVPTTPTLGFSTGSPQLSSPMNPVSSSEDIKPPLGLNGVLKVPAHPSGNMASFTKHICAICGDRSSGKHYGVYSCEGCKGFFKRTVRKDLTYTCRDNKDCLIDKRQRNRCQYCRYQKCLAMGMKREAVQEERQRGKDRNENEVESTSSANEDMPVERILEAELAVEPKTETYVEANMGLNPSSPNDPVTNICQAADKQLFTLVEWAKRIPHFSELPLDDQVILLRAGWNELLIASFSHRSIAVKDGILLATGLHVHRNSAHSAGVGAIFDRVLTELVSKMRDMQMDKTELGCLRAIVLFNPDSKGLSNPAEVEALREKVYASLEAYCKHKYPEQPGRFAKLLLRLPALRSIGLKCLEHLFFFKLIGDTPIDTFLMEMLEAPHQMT
Test: PPAR alpha binding assay (SPA)
Settings: tritiated GW2331, n=3, read-out: Ki PPAR α binding
Excerpt: The nucleotide sequences encoding full-length PPARα receptor DNA (National Center for Biotechnology Information (NCBI) Reference Sequence NM_005036.4), PPARδ receptor DNA (NCBI Reference Sequence NM_006238.4), PPARγ receptor DNA (NCBI Reference Sequence NM_015869.4) and Retinoid X Receptor (RXR) α DNA (NCBI Reference Sequence NM_002957.4) are synthesized and inserted into pFastBacHTb (Invitrogen) vector in-framed with the N-terminal HIS tag from the vector. […] The protein concentration is determined by Bradford assay using BSA as the standard.
Binding Affinities of Compounds for the PPAR α, δ, γ Receptors are Assessed Using Scintillation Proximity Assay (SPA) Technology.
Biotinylated oligonucleotide(DR2) ^5′[…]^3′ (SEQ ID NO: 1) is used for binding of receptors to Yttrium silicate streptavidin-coated SPA beads (Perkin Elmer). The PPAR α, δ, γ and Retinoid X Receptor (RXR) α receptors (endogenously expressed as heterodimers) are cell lysates from Baculovirus expression systems in Sf9 cells. […] Non-specific binding is determined in the presence of 10000 nM unlabeled GW2331 (Kliewer, S. A. et al Proc. Natl. Acad. Sci. USA (1997), 94: 4318-4323) for the alpha and delta receptors and 2-methyl-2-[4-[3-[propyl[(5-pyridin-2-ylthiophen-2-yl)sulfonyl]amino]-propyl]phenoxy]propanoic (WO 2004/073606) for the gamma receptor. […]

CCCc1c(NC(=O)CC(C)(C)C(=O)[O-])cccc1OCCCOc1cc(O)c(-c2ccc(F)cc2)cc1CC.[Na+] [Example 2, Sodium 4-[[3-[3-[2-ethyl-4-(4-fluorophenyl)-5-hydroxy-phenoxy]propoxy]-2-propyl-phenyl]amino]-2,2-dimethyl-4-oxo-butanoate]
pKi: ~6.21
